Data: patent publication US10500222B2, “Compositions and methods relating to treatment of infection” (Wayne State University, priority 2015, dated 2019)
“Also recorded” adds a separate entry of the source.

What was measured:
Assay type in all cases: in vivo, C57BL/6 (B6) mice
[1] = tested on: protein levels in P. aeruginosa KEI 1025 infected cornea; experiment: ELISA of corneal proteins, KEI 1025 infection; conditions: vs PBS
Procedure: (§1) The left eyes of B6 mice (n=5/group/time) were injected with 5 μl of 2 μg/μl glycyrrhizin (GLY) (Sigma-Aldrich, St. Louis, Mo.) or PBS (control) subconjunctivally, one day before infection. Similar treatment was done using carbenoxolone (CBX) (Sigma-Aldrich, St. Louis, Mo.). All mice were injected intraperitoneally (IP) at 1 and 3 days p.i. with 100 μl of GLY (2 μg/μl) or CBX (1 μg/μl). PBS served as control for all these experiments. In a separate similar experiment mice were treated one day before infection with GLY subconjunctivally and injected intraperitoneally (i.p.) with GLY plus recombinant (r) HMGB1 (1 μg/100 μl) or GLY plus PBS. IP injections were similarly given at 1 and 3 days p.i. In an additional experiment, KEI 1025 infected B6 mice were treated with 5 μl of 2 μg/μl GLY subconjunctivally at 6 hours p.i. and injected intraperitoneally at 1 and 3 days p.i. with 100 μl of GLY (2 μg/μl).
KEI 1025 or ATCC strain 19660 infected GLY or PBS treated, B6 mice (n=5/group/time) were sacrificed at 3 and 5 days p.i. and normal and infected corneas harvested. To quantify IL-1β and CXCL2 proteins, individual corneas were homogenized in 1 ml of 50 mM potassium phosphate buffer (pH 6.0) containing 0.5% HTAB (hexadecyltrimethylammonium bromide, Sigma). To quantify HMGB1, cathelicidin-related antimicrobial peptide (CRAMP), mouse beta defensin 2 (mBD2) and mouse beta defensin 3 (mBD3) protein levels, individual corneas were homogenized in 500 μl of PBS containing 0.1% Tween 20 (Sigma) and protease inhibitors (Roche, Indianapolis, Ind.). Corneal homogenates were centrifuged at 12,000 g for 10 min. A 50 μl aliquot of each supernatant was assayed in duplicate to quantify IL-1β, CXCL2, HMGB1 and mBD2 proteins. A 100 μl aliquot of CRAMP and mBD3 supernatant was assayed in duplicate to quantify corresponding protein levels. Undiluted supernatant aliquots were used to quantify all proteins except CXCL2 (1:2 dilution) and HMGB1 (1:5 dilution). An HMGB1 ELISA kit was purchased from Chondrex Inc., Redmond, Wash. CRAMP, mBD2 and mBD3 ELISA kits were purchased from MyBioSource, Inc., San Diego, Calif. All other ELISA kits were purchased from R&D Systems, Minneapolis, Minn. Assays were run following the manufacturer's instructions. Sensitivities of the assays were: 2.31 […] (mBD3).

[2] = tested on: P. aeruginosa KEI 1025 infected cornea; experiment: Ocular response to bacterial infection (clinical score, slit lamp), KEI 1025 keratitis; conditions: for opacity, slit lamp photographs / clinical scores: vs PBS
Excerpt: P. aeruginosa strains, KEI 1025, a non-cytotoxic clinical isolate strain expressing exoT and exoS, and not expressing exoU, described in Estrellas P S, Jr., et al., Curr Eye Res. 2000; 20:157-165 (obtained from Kresge Eye Institute, Detroit, Mich.), and a cytotoxic strain, 19660, expressing exoU, described in Finck-Barbancon V, et al., Mol Microbiol. 1997; 25:547-557; and Fleiszig S M, et al., Infect Immun. 1997; 65:579-586 (obtained from American Type Culture Collection, ATCC, Manassas, Va.), were grown in peptone tryptic soy broth (PTSB) medium in a rotary shaker water bath at 37° C. and 150 rpm for 18 h to an optical density (measured at 540 nm) between 1.3-1.8. Bacterial cultures were pelleted by centrifugation at 5,500 g for 10 min. Pellets were washed once with sterile saline, re-centrifuged, re-suspended and diluted in sterile saline. Anesthetized (using anhydrous ethyl ether) mice were placed beneath a stereoscopic microscope at 40× magnification. The left cornea was scarified with three 1-mm incisions using a sterile 25^5/8 gauge needle. The wounded corneal surface was topically treated with 5 μl containing 1×10^7 CFU/μl (KEI 1025) or 1×10^6 CFU/μl (ATCC strain 19660) of the P. aeruginosa suspension.
An established corneal disease grading scale, described in detail in Hazlett L D, et al., Invest Ophthalmol Vis Sci. 1987; 28:1978-1985, was used to assign a clinical score value to each infected eye at 1, 3 and 5 days post infection (p.i.). Clinical scores were designated as: 0=clear or slight opacity, partially or fully covering the pupil; +1=slight opacity, fully covering the anterior segment; +2=dense opacity, partially or fully covering the pupil; +3=dense opacity, covering the entire anterior segment; and +4=corneal perforation or phthisis. Clinical scores were used to statistically compare disease severity and were accompanied by photographs using a slit lamp (5 days p.i.) to confirm and illustrate the response.
as §1

P. aeruginosa KEI 1025 = experiment: Quantification of viable bacteria (plate count), KEI 1025 infection; conditions: vs PBS; for bacterial load (plate count): post treatment: subconj. 6 hours p.i. + IP 1 and 3 days p.i.; for bacterial load in the corneas (plate count): pretreatment subconj. + IP
Procedure: as §1
Mice were sacrificed at 3 and 5 days p.i. and KEI 1025 or ATCC strain 19660 infected corneas from GLY, CBX or PBS (or GLY+/−rHMGB1) treated B6 mice were harvested (n=5/group/time). Each cornea was homogenized in 1 ml of sterile saline (0.85% NaCl, pH 7.4) containing 0.25% BSA. A 100 μl of the corneal homogenate was serially diluted (1:10) in sterile saline containing 0.25% BSA. Selected dilutions were plated in triplicate on selective culture medium (Difco™ Pseudomonas Isolation Agar, BD Biosciences, Inc., Franklin Lakes, N.J.). Plates were incubated overnight at 37° C. and viable bacteria manually counted. Results are reported as log10 CFU/cornea±SEM.

[3] = KEI 1025, pretreatment subconj. + IP, 3 days p.i.
[4] = KEI 1025, pretreatment subconj. + IP, 5 days p.i.
[5] = subconj. 1 day before infection + IP 1 and 3 days p.i., 5 days p.i.

Q: For `CC1(C)[C@@H](O[C@H]2O[C@H](C(=O)O)[C@@H](O)[C@H](O)[C@H]2O[C@@H]2O[C@H](C(=O)O)[C@@H](O)[C@H](O)[C@H]2O)CC[C@]2(C)[C@H]3C(=O)C=C4[C@@H]5C[C@@](C)(C(=O)O)CC[C@]5(C)CC[C@@]4(C)[C@]3(C)CC[C@@H]12` [GLY, glycyrrhizin], which CXCL2 protein expression [1, 3] is on record?
A: significantly decreased

Q: And the HMGB1 protein [1, 3]?
A: not 3 days p.i.

Q: And the IL-1 protein [1, 3]?
A: no different from control values

Q: What about the “expression of CRAMP (protein)” value [1, 3] of the same molecule?
A: upregulated the expression of CRAMP significantly

Q: And the mBD2 protein [1, 3]?
A: significantly upregulated

Q: What about the mBD3 protein [1, 3] of the same molecule?
A: did not differ significantly

Q: What about the CXCL2 protein expression [1, 4] of the same molecule?
A: significantly decreased

Q: And the HMGB1 protein [1, 4]?
A: reduced HMGB1 protein significantly

Q: And the IL-1 protein [1, 4]?
A: significantly decreased

Q: And the “expression of CRAMP (protein)” value [1, 4]?
A: no difference between groups

Q: What about the mBD2 protein [1, 4] of the same molecule?
A: significantly upregulated

Q: And the mBD3 protein [1, 4]?
A: did not differ significantly

Q: What about the HMGB1 protein ([1]; normal cornea) of the same molecule?
A: did not differ

Q: And the mBD3 protein ([1]; normal cornea)?
A: did not differ significantly

Q: And the mBD2 protein ([1]; normal, contralateral uninfected eye)?
A: higher

Q: What about the “expression of CRAMP (protein)” value ([1]; normal, uninfected cornea) of the same molecule?
A: upregulated the expression of CRAMP significantly

Q: And the “opacity, slit lamp photographs” value ([2]; post treatment: subconj. 6 hours p.i. + IP 1 and 3 days p.i.)?
A: decreased opacity

Q: What about the clinical scores ([2]; post treatment: subconj. 6 hours p.i. + IP 1 and 3 days p.i., 1 day p.i.) of the same molecule?
A: seen only at 3 and 5 days p.i.

Q: And the clinical scores ([2]; post treatment: subconj. 6 hours p.i. + IP 1 and 3 days p.i., 3 days p.i.)?
A: Reduced clinical scores

Q: What about the clinical scores ([2]; post treatment: subconj. 6 hours p.i. + IP 1 and 3 days p.i., 5 days p.i.) of the same molecule?
A: Reduced clinical scores

Q: What about the “infiltrate, slit lamp photographs” value ([2]; pretreatment, 5 days p.i., GLY compared with CBX treated eyes) of the same molecule?
A: less infiltrate

Q: What about the clinical scores ([2]; subconj. 1 day before infection + IP 1 and 3 days p.i., 1 day p.i.) of the same molecule?
A: significantly less corneal disease with lower clinical scores; also recorded: reduced significantly

Q: And the clinical scores ([2]; subconj. 1 day before infection + IP 1 and 3 days p.i., 3 days p.i.)?
A: significantly less corneal disease with lower clinical scores; also recorded: reduced significantly

Q: What about the clinical scores [2, 5] of the same molecule?
A: significantly less corneal disease with lower clinical scores; also recorded: reduced significantly

Q: What about the “opacity, slit lamp photographs” value [2, 5] of the same molecule?
A: reduced opacity

Q: And the “bacterial load (plate count)” value (P. aeruginosa KEI 1025; 3 days p.i.)?
A: reduced significantly

Q: What about the “bacterial load (plate count)” value (P. aeruginosa KEI 1025; 5 days p.i.) of the same molecule?
A: reduced significantly

Q: And the “bacterial load in the corneas (plate count)” value (P. aeruginosa KEI 1025; 3 days p.i.)?
A: reduced

Q: And the “bacterial load in the corneas (plate count)” value (P. aeruginosa KEI 1025; 5 days p.i.)?
A: reduced
